Data on one compound can be found in paper PMC8245910 (Acta Pharmaceutica Sinica. B, 2021).

One series concerns the target T1, BCRP (Homo sapiens, UniProt Q9UNQ0).
T1 sequence (Q9UNQ0 1-655): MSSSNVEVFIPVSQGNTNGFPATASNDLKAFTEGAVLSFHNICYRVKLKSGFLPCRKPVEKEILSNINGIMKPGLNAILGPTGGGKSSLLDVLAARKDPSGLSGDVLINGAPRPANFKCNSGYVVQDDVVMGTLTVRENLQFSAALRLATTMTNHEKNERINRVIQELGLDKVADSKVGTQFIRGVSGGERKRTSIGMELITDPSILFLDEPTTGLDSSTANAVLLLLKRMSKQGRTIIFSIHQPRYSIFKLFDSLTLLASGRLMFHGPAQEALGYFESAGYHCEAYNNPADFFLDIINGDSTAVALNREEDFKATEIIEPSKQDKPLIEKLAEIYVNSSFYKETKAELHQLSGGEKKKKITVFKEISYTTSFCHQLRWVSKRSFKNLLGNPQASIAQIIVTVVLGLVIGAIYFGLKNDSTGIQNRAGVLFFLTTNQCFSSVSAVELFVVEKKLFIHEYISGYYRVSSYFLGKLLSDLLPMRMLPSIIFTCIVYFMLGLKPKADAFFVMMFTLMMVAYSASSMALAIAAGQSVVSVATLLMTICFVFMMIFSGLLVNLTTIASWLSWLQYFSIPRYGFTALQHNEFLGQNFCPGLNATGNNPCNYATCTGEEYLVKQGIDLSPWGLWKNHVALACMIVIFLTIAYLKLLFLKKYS
Particulars: cited from earlier work.

A further series addresses MDR1 (Homo sapiens, UniProt P08183). The conditions noted are these: cited from earlier work.
A further series relates to wild-type TF-1. In words: 2-HG reducing assay in cell. The series is classed as cell-based.
The conditions of series [1]: SD rats; cited from earlier work.

MDR1, sequence (P08183 whole entry): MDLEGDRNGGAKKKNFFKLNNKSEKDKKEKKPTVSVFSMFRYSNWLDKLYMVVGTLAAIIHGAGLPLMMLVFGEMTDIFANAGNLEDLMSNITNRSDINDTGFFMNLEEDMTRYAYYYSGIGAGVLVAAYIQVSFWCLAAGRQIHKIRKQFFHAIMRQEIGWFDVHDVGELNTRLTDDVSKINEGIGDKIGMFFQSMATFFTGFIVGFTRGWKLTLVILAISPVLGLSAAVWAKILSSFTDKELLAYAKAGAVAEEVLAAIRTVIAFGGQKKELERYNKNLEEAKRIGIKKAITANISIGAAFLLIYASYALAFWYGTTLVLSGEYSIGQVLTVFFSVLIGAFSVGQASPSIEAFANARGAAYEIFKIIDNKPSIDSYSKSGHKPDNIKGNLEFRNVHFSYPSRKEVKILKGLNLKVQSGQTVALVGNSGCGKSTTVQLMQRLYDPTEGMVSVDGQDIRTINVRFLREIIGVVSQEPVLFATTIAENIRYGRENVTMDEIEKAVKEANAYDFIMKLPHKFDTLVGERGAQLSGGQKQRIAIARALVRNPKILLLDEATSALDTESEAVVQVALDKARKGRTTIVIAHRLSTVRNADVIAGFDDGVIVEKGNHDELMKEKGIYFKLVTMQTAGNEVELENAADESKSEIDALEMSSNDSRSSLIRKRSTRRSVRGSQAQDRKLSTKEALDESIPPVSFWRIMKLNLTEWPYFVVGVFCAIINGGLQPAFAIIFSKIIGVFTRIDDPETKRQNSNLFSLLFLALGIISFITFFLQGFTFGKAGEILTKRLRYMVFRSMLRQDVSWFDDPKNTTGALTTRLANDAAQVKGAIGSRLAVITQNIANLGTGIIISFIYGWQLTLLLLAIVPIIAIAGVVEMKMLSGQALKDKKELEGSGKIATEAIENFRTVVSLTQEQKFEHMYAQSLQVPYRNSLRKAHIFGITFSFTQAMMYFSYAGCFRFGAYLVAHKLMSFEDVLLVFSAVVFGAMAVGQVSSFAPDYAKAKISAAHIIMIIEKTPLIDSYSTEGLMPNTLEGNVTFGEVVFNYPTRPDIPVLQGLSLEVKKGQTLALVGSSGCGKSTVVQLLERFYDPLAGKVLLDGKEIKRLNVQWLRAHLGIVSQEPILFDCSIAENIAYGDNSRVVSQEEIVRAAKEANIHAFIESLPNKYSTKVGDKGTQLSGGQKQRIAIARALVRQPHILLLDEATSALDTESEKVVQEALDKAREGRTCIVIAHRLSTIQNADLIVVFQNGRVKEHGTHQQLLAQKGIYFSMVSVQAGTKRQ

As to `CC(C)(O)CNc1nc(Nc2ccnc(C(F)(F)F)c2)nc(-c2cccc(C(F)(F)F)n2)n1` [AG-221, Enasidenib], the “inhibition of BCRP” value on BCRP is reported as “strong inhibitor”. The “inhibition of MDR1” value at MDR1 is reported as “strong inhibitor”. For the same compound, in the series with wild-type TF-1, the “overall concentration of 2-HG” value is given as “did not change significantly”. In series [1], the “prototype drug in the excrement, share of the total drugs” value was “about 50%”; the “prototype products and metabolites excreted in feces” value is given as greater than 90%.
